Laboratory results as given in US20200239530A1, “COMPOUNDS AND METHODS OF MODULATING PROTEIN DEGRADATION” (Vividion Therapeutics, Inc., priority 2017, published 2020).
One block for each compound: values may come before it.

Key:
Assay in all cases: Cysteine liganding, probe competition
Assay type in all cases: binding
UniProt Q149N8 = biological target: T1, UniProt Q149N8 (Homo sapiens, UniProt Q149N8); conditions: read-out: percent_inhibition
T1 construct: 200 μL of lysate containing 5 mg/ml proteome was treated with 2 μL of 100× compound stock; endogenous in cells
Excerpt: (§1) The following 96-well sample prep protocol was used for sample preparation.

UniProt Q9NS56 = biological target: T2, UniProt Q9NS56 (Homo sapiens, UniProt Q9NS56)
T2 construct: 200 μL of lysate containing 5 mg/ml proteome was treated with 2 μL of 100× compound stock; endogenous in cells
T2 sequence (Q9NS56 whole entry, change not shown): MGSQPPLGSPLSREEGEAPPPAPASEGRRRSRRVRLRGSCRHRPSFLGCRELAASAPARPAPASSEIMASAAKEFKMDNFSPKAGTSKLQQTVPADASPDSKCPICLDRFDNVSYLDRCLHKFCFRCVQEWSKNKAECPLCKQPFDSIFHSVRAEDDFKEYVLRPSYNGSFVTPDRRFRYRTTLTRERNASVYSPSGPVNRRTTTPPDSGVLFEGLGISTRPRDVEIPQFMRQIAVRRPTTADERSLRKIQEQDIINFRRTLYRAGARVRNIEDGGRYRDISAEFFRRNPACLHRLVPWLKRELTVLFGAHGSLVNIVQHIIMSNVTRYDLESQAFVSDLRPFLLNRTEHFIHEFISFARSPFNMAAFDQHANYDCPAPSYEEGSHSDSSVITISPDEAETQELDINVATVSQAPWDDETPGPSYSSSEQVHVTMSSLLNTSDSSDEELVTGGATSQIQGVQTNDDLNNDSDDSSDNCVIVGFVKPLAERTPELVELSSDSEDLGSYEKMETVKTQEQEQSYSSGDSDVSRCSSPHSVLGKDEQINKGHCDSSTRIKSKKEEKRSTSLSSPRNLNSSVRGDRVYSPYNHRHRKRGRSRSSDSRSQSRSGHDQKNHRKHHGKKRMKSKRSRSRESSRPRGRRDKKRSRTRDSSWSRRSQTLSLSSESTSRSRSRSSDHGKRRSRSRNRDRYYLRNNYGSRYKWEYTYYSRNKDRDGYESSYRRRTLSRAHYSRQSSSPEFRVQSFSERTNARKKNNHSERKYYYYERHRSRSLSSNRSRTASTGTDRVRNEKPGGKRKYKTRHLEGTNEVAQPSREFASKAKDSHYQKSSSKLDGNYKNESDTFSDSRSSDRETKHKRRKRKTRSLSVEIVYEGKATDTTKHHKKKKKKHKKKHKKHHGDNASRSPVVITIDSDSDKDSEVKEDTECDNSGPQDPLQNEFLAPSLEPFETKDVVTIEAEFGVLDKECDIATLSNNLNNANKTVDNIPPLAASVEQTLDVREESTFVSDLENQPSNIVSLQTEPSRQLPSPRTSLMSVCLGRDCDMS
Excerpt: as §1

UniProt Q13356 = biological target: T3, UniProt Q13356 (Homo sapiens, UniProt Q13356); conditions: read-out: KB05_500 uM_percent_inhibition
T3 construct: 200 μL of lysate containing 5 mg/ml proteome was treated with 2 μL of 100× compound stock; endogenous in cells
Excerpt: as §1

UniProt Q9C030 = biological target: T4, UniProt Q9C030 (Homo sapiens, UniProt Q9C030); conditions: read-out: KB05_500 uM_percent_inhibition
T4 construct: 200 μL of lysate containing 5 mg/ml proteome was treated with 2 μL of 100× compound stock; endogenous in cells
Excerpt: as §1

UniProt Q99942 = biological target: T5, UniProt Q99942 (Homo sapiens, UniProt Q99942)
T5 construct: 200 μL of lysate containing 5 mg/ml proteome was treated with 2 μL of 100× compound stock; endogenous in cells
T5 sequence (Q99942 whole entry, change not shown): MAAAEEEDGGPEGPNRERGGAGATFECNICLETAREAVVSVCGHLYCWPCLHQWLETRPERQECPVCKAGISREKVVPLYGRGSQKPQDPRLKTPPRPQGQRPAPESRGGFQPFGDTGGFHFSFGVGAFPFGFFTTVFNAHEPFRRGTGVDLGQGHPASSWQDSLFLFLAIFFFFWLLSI
Excerpt: as §1

UniProt Q8IUQ4 = biological target: T6, UniProt Q8IUQ4 (Homo sapiens, UniProt Q8IUQ4)
T6 construct: 200 μL of lysate containing 5 mg/ml proteome was treated with 2 μL of 100× compound stock; endogenous in cells
T6 sequence (Q8IUQ4 whole entry, change not shown): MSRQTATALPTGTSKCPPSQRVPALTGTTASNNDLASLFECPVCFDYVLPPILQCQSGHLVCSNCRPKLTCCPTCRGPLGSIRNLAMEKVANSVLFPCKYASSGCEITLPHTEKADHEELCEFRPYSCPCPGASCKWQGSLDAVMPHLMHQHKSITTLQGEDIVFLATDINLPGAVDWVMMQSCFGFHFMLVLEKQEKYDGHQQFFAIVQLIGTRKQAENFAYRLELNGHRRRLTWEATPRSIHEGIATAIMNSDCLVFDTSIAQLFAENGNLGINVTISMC
Excerpt: as §1

UniProt Q96AX9 = biological target: T7, UniProt Q96AX9 (Homo sapiens, UniProt Q96AX9)
T7 construct: Cells were resuspended in cold PBS on ice and sonicated with a probe sonicator to achieve lysis; endogenous in cells
T7 sequence (Q96AX9 whole entry, change not shown): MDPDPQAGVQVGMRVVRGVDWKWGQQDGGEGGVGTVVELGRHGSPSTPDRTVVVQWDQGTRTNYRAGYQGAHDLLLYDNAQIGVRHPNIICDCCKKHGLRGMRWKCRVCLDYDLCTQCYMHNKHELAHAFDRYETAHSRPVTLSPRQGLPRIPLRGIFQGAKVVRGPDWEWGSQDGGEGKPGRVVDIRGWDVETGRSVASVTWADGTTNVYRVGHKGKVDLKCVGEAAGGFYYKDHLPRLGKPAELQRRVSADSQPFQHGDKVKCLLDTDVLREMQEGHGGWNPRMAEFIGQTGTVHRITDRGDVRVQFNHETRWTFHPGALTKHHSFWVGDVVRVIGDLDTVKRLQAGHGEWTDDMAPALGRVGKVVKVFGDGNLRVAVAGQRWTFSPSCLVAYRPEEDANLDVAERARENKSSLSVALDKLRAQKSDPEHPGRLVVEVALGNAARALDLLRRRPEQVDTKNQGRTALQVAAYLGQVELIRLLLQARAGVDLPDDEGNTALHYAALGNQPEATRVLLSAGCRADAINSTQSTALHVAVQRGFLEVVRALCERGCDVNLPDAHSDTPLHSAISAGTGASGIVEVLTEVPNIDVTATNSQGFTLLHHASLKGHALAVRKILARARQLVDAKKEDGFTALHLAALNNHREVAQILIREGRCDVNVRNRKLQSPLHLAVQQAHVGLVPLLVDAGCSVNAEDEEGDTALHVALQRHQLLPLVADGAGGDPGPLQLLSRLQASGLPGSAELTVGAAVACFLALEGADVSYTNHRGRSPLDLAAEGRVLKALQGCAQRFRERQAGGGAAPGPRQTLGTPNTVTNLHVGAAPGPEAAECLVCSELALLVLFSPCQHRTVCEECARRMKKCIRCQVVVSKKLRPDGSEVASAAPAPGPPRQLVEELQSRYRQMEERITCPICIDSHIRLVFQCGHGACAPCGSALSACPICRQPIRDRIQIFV
Excerpt: as §1

UniProt O14512 = biological target: T8, UniProt O14512 (Homo sapiens, UniProt O14512); conditions: read-out: percent_inhibition
T8 construct: 200 μL of lysate containing 5 mg/ml proteome was treated with 2 μL of 100× compound stock; endogenous in cells
Excerpt: as §1

UniProt A8MQ27 = biological target: T9, UniProt A8MQ27 (Homo sapiens, UniProt A8MQ27); conditions: read-out: percent inhibition
T9 construct: Cells were resuspended in cold PBS on ice and sonicated with a probe sonicator to achieve lysis; endogenous in cells
Excerpt: as §1

UniProt O60291 = biological target: T10, UniProt O60291 (Homo sapiens, UniProt O60291)
T10 construct: Cells were resuspended in cold PBS on ice and sonicated with a probe sonicator to achieve lysis; endogenous in cells
T10 sequence (O60291 whole entry, change not shown): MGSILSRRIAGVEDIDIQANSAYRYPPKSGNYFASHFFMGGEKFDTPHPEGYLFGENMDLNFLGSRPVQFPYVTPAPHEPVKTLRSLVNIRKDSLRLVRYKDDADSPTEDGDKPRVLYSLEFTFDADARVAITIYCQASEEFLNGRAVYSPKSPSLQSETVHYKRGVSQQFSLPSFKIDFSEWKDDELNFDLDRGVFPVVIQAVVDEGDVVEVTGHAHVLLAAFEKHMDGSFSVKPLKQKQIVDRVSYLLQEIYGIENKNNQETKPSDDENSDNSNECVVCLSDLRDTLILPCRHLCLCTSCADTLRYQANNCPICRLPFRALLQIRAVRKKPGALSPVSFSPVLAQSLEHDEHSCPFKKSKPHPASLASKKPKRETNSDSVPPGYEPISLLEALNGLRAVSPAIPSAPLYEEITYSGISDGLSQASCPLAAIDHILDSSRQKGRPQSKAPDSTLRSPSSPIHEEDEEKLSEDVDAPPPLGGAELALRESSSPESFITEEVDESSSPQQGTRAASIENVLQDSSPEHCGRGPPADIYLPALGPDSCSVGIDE
Excerpt: as §1

UniProt Q9C037 = biological target: T11, UniProt Q9C037 (Homo sapiens, UniProt Q9C037); conditions: read-out: KB05_100 uM_percent_inhibition
T11 construct: 200 μL of lysate containing 5 mg/ml proteome was treated with 2 μL of 100× compound stock; endogenous in cells
Excerpt: as §1

UniProt P0DH78 = biological target: T12, UniProt P0DH78 (Homo sapiens, UniProt P0DH78); conditions: read-out: percent_inhibition
T12 construct: 200 μL of lysate containing 5 mg/ml proteome was treated with 2 μL of 100× compound stock; endogenous in cells
T12 sequence (P0DH78 whole entry, change not shown): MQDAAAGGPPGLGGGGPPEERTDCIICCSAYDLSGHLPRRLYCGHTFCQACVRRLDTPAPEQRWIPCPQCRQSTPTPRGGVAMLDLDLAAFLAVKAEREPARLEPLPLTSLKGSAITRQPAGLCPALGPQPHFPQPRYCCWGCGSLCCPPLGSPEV
Excerpt: as §1

UniProt Q96PU5 = biological target: T13, UniProt Q96PU5 (Homo sapiens, UniProt Q96PU5)
T13 construct: Cells were resuspended in cold PBS on ice and sonicated with a probe sonicator to achieve lysis; endogenous in cells
T13 sequence (Q96PU5 whole entry, change not shown): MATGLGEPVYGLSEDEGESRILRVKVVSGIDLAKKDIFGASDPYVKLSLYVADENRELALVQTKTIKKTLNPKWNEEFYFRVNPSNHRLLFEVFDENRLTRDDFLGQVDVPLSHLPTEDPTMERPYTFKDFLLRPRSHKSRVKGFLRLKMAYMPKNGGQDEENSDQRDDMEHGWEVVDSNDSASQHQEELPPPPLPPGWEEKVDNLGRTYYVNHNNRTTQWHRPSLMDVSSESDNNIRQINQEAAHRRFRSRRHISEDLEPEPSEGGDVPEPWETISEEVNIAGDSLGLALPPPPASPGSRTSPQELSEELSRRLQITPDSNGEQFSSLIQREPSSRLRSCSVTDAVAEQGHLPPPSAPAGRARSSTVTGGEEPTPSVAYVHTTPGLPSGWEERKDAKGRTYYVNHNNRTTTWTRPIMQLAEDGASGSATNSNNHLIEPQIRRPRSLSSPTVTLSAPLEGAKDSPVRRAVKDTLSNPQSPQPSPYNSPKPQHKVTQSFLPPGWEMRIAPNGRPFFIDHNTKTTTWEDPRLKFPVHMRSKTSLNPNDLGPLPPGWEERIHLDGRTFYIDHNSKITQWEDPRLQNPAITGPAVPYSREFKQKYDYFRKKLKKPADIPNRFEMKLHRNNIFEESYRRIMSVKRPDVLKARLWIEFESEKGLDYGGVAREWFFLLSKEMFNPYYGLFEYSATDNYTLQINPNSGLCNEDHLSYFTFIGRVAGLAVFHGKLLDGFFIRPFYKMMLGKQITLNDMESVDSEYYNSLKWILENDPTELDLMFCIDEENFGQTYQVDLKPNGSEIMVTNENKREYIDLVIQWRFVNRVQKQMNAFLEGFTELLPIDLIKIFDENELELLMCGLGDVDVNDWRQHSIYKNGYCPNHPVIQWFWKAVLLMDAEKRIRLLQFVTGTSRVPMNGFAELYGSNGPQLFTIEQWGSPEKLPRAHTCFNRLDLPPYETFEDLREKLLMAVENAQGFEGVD
Excerpt: as §1

UniProt Q5U5Q3 = biological target: T14, UniProt Q5U5Q3 (Homo sapiens, UniProt Q5U5Q3); conditions: read-out: percent inhibition
T14 construct: Cells were resuspended in cold PBS on ice and sonicated with a probe sonicator to achieve lysis; endogenous in cells
Excerpt: as §1

UniProt Q9BYV6 = biological target: T15, UniProt Q9BYV6 (Homo sapiens, UniProt Q9BYV6); conditions: read-out: KB02_500 uM_percent_inhibition
T15 construct: 200 μL of lysate containing 5 mg/ml proteome was treated with 2 μL of 100× compound stock; endogenous in cells
Excerpt: as §1

UniProt O00635 = biological target: T16, UniProt O00635 (Homo sapiens, UniProt O00635)
T16 construct: 200 μL of lysate containing 5 mg/ml proteome was treated with 2 μL of 100× compound stock; endogenous in cells
T16 sequence (O00635 whole entry, change not shown): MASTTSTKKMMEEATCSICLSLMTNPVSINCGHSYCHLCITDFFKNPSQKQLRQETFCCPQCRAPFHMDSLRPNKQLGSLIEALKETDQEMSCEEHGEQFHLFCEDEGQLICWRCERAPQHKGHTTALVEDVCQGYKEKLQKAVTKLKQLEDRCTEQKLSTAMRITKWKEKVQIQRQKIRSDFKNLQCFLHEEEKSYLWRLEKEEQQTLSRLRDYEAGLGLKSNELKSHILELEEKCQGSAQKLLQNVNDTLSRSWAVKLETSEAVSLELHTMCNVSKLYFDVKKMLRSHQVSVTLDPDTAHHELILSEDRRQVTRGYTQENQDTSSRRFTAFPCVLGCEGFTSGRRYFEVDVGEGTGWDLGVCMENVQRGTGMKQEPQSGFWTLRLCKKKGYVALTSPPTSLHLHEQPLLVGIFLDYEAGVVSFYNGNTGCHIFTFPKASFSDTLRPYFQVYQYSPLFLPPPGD
Excerpt: as §1

UniProt Q9NRJ4 = biological target: T17, UniProt Q9NRJ4 (Homo sapiens, UniProt Q9NRJ4); conditions: read-out: KB02_100 uM_percent_inhibition
T17 construct: 200 μL of lysate containing 5 mg/ml proteome was treated with 2 μL of 100× compound stock; endogenous in cells
Excerpt: as §1

UniProt Q8NG27 = biological target: T18, UniProt Q8NG27 (Homo sapiens, UniProt Q8NG27); conditions: 100 uM
T18 construct: 200 μL of lysate containing 5 mg/ml proteome was treated with 2 μL of 100× compound stock; endogenous in cells
Excerpt: as §1

UniProt Q9BUZ4 = biological target: T19, UniProt Q9BUZ4 (Homo sapiens, UniProt Q9BUZ4); conditions: 100 uM
T19 construct: 200 μL of lysate containing 5 mg/ml proteome was treated with 2 μL of 100× compound stock; endogenous in cells
Excerpt: as §1

inhibition at 100 µM (UniProt Q149N8): 41%
percent_inhibition (UniProt Q9NS56; 100 uM): 11%
inhibition at 100 µM (UniProt Q9NS56; read-out: percent_inhibition): 13%
inhibition at 500 µM (UniProt Q13356): 69%
inhibition at 500 µM (UniProt Q9C030): 53%
percent_inhibition (UniProt Q99942; 100 uM): 15%
inhibition at 100 µM (UniProt Q99942; read-out: percent_inhibition): 14%
percent_inhibition (UniProt Q8IUQ4; 100 uM): 17%
inhibition at 100 µM (UniProt Q8IUQ4; read-out: percent_inhibition): 9%
percent inhibition (UniProt Q96AX9; 100 uM): 9%
inhibition at 100 µM (UniProt Q96AX9; read-out: percent inhibition): 11%
inhibition at 500 µM (UniProt O14512): 89%
inhibition at 500 µM (UniProt A8MQ27): 44%
percent inhibition (UniProt O60291; 100 uM): 20%
inhibition at 100 µM (UniProt O60291; read-out: percent inhibition): 13%
inhibition at 100 µM (UniProt Q9C037): 11%
Compound: C=CC(=O)N(c1ccccc1)c1ccc(Br)cc1 [KB05]

Compound: COc1ccc2c(c1)CCCN2C(=O)CCl [KB02]
inhibition at 100 µM (UniProt P0DH78; 100 uM): 17%
inhibition at 500 µM (UniProt P0DH78; 500 uM): 67%
percent inhibition (UniProt Q96PU5; 100 uM): 33%
inhibition at 100 µM (UniProt Q96PU5; read-out: percent inhibition): 30%
inhibition at 100 µM (UniProt Q5U5Q3): 5%
inhibition at 500 µM (UniProt Q9BYV6): 1%
KB02_100 uM_percent_inhibition (UniProt O00635; 100 uM): 7%
inhibition at 100 µM (UniProt O00635; read-out: KB02_100 uM_percent_inhibition): 8%
inhibition at 100 µM (UniProt Q9NRJ4): 28%

Compound: O=C(CCl)Nc1cc(C(F)(F)F)cc(C(F)(F)F)c1 [KBO3]
KB03_100 uM_percent_inhibition (UniProt Q8NG27): 16%
percent_inhibition (UniProt Q9BUZ4): 30%
